# Data published in ChEMBL document CHEMBL5705893, “Targeting the mitotic checkpoint for cancer therapy with NMS-P715, an inhibitor of MPS1 kinase” (Cancer Res, 2010).
# Active and inactive are the calls of the source. The rule behind the calls is not given here.
# Key:
# [1] = Antiproliferative activity against human NPA cells assessed as inhibition of cell growth incubated for 72 hrs by celltiter-glo assay; format: functional, cell-based
# A498 = test: Antiproliferative activity against human A498 cells assessed as inhibition of cell growth incubated for 72 hrs by celltiter-glo assay; format: functional, cell-based; conditions: A498, 72 h
# SU-DHL-8 = test: Antiproliferative activity against human SU-DHL-8 cells assessed as inhibition of cell growth incubated for 72 hrs by celltiter-glo assay; format: functional, cell-based; conditions: SU-DHL-8, 72 h
# [2] = biological target: Proto-oncogene tyrosine-protein kinase receptor Ret (Homo sapiens, UniProt P07949); test: Inhibition of recombinant RET (unknown origin)
# Proto-oncogene tyrosine-protein kinase receptor Ret, sequence (P07949 whole entry): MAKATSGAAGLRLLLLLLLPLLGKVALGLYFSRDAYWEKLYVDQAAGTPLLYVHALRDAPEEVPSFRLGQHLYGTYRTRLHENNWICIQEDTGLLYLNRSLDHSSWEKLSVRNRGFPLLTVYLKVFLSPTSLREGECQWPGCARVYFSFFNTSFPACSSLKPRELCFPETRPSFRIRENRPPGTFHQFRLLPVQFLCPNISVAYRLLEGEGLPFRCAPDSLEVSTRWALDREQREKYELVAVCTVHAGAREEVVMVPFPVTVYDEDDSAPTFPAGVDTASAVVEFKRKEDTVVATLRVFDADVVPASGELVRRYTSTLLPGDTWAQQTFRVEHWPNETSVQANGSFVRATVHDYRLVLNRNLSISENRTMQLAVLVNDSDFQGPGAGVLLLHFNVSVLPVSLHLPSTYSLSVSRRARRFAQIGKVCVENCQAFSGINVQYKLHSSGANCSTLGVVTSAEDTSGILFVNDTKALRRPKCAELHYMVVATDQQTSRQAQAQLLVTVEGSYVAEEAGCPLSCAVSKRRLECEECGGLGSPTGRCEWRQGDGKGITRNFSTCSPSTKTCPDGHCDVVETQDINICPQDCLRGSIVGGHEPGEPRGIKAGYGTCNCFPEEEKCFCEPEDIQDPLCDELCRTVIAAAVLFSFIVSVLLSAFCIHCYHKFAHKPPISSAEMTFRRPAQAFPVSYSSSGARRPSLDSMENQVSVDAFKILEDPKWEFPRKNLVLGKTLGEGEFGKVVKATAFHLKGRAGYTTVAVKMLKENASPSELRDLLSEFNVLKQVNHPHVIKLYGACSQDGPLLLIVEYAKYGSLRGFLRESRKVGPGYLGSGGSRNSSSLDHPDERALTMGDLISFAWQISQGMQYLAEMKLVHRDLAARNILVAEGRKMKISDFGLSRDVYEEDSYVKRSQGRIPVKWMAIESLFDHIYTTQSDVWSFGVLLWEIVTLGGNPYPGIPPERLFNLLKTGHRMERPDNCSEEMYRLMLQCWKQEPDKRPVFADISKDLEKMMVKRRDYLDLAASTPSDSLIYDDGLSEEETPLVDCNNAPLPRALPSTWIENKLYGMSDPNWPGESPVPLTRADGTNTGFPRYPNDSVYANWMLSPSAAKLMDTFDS
# [3] = biological target: Serine/threonine-protein kinase Chk1 (Homo sapiens, UniProt O14757); test: Inhibition of recombinant CHK1 (unknown origin)
# MDA-MB-435 = test: Antiproliferative activity against human MDA-MB-435 cells assessed as inhibition of cell growth incubated for 72 hrs by celltiter-glo assay; format: functional, cell-based; conditions: MDA-MB-435, 72 h
# HeLa [4] = test: Induction of mitotic arrest in human nocodazole-arrested HeLa cells assessed as delocalization of MAD1 at 1 micromol/L in presence of MG132; format: functional, cell-based; conditions: dose 1.0 µmol/L
# U2OS [5] = test: Inhibition of colony formation in human U2OS cells assessed as decrease in colony number incubated for 22 hrs followed by compound washout and measured after 8 days by crystal violet staining based assay; format: functional, cell-based
# L-363 = test: Antiproliferative activity against human L-363 cells assessed as inhibition of cell growth incubated for 72 hrs by celltiter-glo assay; format: functional, cell-based; conditions: L-363, 72 h
# [6] = biological target: Maternal embryonic leucine zipper kinase (Homo sapiens, UniProt Q14680); test: Inhibition of recombinant MELK (unknown origin) preincubated for 60 mins
# [7] = biological target: Receptor-type tyrosine-protein kinase FLT3 (Homo sapiens, UniProt P36888); test: Inhibition of recombinant FLT3 (unknown origin)
# Receptor-type tyrosine-protein kinase FLT3, sequence (P36888 whole entry): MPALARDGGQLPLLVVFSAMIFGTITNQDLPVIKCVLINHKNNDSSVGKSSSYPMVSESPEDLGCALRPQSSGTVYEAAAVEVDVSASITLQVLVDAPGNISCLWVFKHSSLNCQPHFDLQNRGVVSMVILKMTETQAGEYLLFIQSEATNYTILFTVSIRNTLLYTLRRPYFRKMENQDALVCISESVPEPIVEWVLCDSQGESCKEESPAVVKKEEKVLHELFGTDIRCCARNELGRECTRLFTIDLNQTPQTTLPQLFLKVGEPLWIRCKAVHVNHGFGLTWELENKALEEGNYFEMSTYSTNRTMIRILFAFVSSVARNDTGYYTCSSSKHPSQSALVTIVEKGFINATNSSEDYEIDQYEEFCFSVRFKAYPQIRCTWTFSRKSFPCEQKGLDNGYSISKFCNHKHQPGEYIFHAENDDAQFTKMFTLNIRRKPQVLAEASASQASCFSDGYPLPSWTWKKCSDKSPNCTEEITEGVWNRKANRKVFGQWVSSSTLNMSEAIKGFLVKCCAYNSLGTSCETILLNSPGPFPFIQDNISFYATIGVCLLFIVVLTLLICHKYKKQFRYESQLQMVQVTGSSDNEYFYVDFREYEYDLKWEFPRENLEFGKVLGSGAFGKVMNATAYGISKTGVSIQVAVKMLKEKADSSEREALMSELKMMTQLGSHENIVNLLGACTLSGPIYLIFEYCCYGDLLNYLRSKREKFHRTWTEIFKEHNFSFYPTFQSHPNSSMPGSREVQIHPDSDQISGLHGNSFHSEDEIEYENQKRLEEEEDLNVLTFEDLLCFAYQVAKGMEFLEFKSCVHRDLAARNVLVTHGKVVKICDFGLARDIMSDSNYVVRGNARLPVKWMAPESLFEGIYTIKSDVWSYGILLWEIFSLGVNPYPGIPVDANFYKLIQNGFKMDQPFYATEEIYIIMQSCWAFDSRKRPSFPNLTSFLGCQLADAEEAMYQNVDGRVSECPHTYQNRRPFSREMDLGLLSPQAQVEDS
# [8] = biological target: Serine/threonine-protein kinase haspin (Homo sapiens, UniProt Q8TF76); test: Inhibition of recombinant Haspin (unknown origin)
# COLO 205 = test: Antiproliferative activity against human COLO 205 cells assessed as inhibition of cell growth incubated for 72 hrs by celltiter-glo assay; format: functional, cell-based; conditions: COLO 205, 72 h
# COLO 320 = test: Antiproliferative activity against human COLO 320 cells assessed as inhibition of cell growth incubated for 72 hrs by celltiter-glo assay; format: functional, cell-based; conditions: COLO 320, 72 h
# [9] = AUC in Athymic nu-nu mouse at 100 mg/kg, po measured upto 24 hrs by LC-MS/MS analysis; format: ADME, organism-based; conditions: in vivo
# [10] = Antiproliferative activity against human COLO 206F cells assessed as inhibition of cell growth incubated for 72 hrs by celltiter-glo assay; format: functional, cell-based
# HEL = test: Antiproliferative activity against human HEL cells assessed as inhibition of cell growth incubated for 72 hrs by celltiter-glo assay; format: functional, cell-based
# HOP-92 = test: Antiproliferative activity against human HOP-92 cells assessed as inhibition of cell growth incubated for 72 hrs by celltiter-glo assay; format: functional, cell-based; conditions: HOP-92, 72 h
# [11] = Antiproliferative activity against human CL-11 cells assessed as inhibition of cell growth incubated for 72 hrs by celltiter-glo assay; format: functional, cell-based; conditions: CL-11, 72 h
# [12] = biological target: Epidermal growth factor receptor (Homo sapiens, UniProt P00533)
# Description: Inhibition of recombinant EGFR1 (unknown origin)
# COLO-741 = test: Antiproliferative activity against human COLO-741 cells assessed as inhibition of cell growth incubated for 72 hrs by celltiter-glo assay; format: functional, cell-based; conditions: COLO-741, 72 h
# [13] = biological target: Protein-tyrosine kinase 6 (Homo sapiens, UniProt Q13882); test: Inhibition of recombinant BRK (unknown origin)
# [14] = Oral bioavailability in Athymic nu-nu mouse at 100 mg/kg measured upto 24 hrs by LC-MS/MS analysis; format: ADME, organism-based; conditions: in vivo
# Granta-519 = test: Antiproliferative activity against human Granta-519 cells assessed as inhibition of cell growth incubated for 72 hrs by celltiter-glo assay; format: functional, cell-based; conditions: Granta-519, 72 h
# BT-549 = test: Antiproliferative activity against human BT-549 cells assessed as inhibition of cell growth incubated for 72 hrs by celltiter-glo assay; format: functional, cell-based; conditions: BT-549, 72 h
# NCI-H1770 = test: Antiproliferative activity against human NCI-H1770 cells assessed as inhibition of cell growth incubated for 72 hrs by celltiter-glo assay; format: functional, cell-based; conditions: NCI-H1770, 72 h
# ACHN = test: Antiproliferative activity against human ACHN cells assessed as inhibition of cell growth incubated for 72 hrs by celltiter-glo assay; format: functional, cell-based
# [15] = biological target: ALK tyrosine kinase receptor (Homo sapiens, UniProt Q9UM73); test: Inhibition of recombinant ALK (unknown origin)
# ALK tyrosine kinase receptor, sequence (Q9UM73 whole entry): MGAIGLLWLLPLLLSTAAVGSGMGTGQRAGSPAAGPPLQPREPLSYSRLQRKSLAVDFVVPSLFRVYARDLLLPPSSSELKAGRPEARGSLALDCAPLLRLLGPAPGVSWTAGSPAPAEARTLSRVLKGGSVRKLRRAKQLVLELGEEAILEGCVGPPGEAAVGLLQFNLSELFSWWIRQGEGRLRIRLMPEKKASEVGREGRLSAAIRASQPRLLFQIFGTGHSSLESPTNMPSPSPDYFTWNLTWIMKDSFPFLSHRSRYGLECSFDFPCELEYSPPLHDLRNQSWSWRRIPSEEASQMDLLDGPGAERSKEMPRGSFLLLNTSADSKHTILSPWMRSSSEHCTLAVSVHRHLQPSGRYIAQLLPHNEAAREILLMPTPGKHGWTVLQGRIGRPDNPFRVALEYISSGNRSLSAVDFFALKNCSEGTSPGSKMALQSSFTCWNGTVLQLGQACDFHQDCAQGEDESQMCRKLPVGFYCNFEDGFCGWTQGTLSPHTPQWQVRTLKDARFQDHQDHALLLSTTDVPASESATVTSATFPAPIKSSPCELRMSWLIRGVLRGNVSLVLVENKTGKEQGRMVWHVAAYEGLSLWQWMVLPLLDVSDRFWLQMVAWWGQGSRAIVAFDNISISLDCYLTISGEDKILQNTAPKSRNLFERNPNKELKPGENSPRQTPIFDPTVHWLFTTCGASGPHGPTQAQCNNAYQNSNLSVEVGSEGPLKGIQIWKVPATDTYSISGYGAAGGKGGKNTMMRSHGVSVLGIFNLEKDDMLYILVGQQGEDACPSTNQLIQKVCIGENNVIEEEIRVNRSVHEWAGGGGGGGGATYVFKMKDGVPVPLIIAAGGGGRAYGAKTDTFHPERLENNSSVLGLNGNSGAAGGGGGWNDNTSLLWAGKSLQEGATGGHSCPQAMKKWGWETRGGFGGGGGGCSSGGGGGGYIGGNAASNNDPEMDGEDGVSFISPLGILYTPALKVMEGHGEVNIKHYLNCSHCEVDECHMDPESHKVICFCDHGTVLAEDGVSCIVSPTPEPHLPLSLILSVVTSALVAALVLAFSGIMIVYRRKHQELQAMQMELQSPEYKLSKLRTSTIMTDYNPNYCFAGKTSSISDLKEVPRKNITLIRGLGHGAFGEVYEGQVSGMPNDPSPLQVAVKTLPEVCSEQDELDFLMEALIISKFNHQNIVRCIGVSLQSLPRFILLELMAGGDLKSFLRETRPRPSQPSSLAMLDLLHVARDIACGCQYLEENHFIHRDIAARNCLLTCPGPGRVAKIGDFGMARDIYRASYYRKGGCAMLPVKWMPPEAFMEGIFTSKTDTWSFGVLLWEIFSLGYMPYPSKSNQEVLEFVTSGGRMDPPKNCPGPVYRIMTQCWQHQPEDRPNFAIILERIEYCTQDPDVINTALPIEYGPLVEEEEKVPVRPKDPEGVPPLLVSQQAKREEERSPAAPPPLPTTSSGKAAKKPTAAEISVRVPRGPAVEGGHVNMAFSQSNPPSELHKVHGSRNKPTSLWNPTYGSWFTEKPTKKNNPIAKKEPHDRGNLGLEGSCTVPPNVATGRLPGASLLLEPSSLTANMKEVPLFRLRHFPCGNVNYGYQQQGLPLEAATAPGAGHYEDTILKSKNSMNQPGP
# HOP-62 = test: Antiproliferative activity against human HOP-62 cells assessed as inhibition of cell growth incubated for 72 hrs by celltiter-glo assay; format: functional, cell-based; conditions: HOP-62, 72 h
# SN12C = test: Antiproliferative activity against human SN12C cells assessed as inhibition of cell growth incubated for 72 hrs by celltiter-glo assay; format: functional, cell-based
# T84 = test: Antiproliferative activity against human T84 cells assessed as inhibition of cell growth incubated for 72 hrs by celltiter-glo assay; format: functional, cell-based; conditions: T84, 72 h
# U2OS [16] = test: Induction of mitotic arrest in human U2OS cells expressing YFP-alpha-tubulin assessed as effect on bipolar spindle formation at 1 micromol/L by time-lapse microscopic analysis; format: functional, cell-based; conditions: dose 1.0 µmol/L
# [17] = Antiproliferative activity against human GM03798 cells assessed as inhibition of cell growth incubated for 72 hrs by celltiter-glo assay; format: functional, cell-based; conditions: GM03798, 72 h
# NCI/ADR-RES = test: Antiproliferative activity against human NCI-ADR-RES cells assessed as inhibition of cell growth incubated for 72 hrs by celltiter-glo assay; format: functional, cell-based
# HeLa [18] = test: Effect on BUBR1 level in human nocodazole-arrested HeLa cells at 1 micromol/L in presence of MG132; format: functional, cell-based; conditions: dose 1.0 µmol/L
# U2OS [19] = test: Induction of mitotic arrest in human U2OS cells expressing YFP-alpha-tubulin assessed as mitotic index at 1 micromol/L in presence of MG132 by time-lapse microscopic analysis; format: functional, cell-based; conditions: dose 1.0 µmol/L
# HeLa [20] = test: Induction of mitotic arrest in human nocodazole-arrested HeLa cells assessed as delocalization of BUB1 at 1 micromol/L in presence of MG132; format: functional, cell-based; conditions: dose 1.0 µmol/L
# [21] = biological target: Eukaryotic translation initiation factor 2-alpha kinase 3 (Homo sapiens, UniProt Q9NZJ5); test: Inhibition of recombinant PERK (unknown origin)
# Eukaryotic translation initiation factor 2-alpha kinase 3, sequence (Q9NZJ5 whole entry): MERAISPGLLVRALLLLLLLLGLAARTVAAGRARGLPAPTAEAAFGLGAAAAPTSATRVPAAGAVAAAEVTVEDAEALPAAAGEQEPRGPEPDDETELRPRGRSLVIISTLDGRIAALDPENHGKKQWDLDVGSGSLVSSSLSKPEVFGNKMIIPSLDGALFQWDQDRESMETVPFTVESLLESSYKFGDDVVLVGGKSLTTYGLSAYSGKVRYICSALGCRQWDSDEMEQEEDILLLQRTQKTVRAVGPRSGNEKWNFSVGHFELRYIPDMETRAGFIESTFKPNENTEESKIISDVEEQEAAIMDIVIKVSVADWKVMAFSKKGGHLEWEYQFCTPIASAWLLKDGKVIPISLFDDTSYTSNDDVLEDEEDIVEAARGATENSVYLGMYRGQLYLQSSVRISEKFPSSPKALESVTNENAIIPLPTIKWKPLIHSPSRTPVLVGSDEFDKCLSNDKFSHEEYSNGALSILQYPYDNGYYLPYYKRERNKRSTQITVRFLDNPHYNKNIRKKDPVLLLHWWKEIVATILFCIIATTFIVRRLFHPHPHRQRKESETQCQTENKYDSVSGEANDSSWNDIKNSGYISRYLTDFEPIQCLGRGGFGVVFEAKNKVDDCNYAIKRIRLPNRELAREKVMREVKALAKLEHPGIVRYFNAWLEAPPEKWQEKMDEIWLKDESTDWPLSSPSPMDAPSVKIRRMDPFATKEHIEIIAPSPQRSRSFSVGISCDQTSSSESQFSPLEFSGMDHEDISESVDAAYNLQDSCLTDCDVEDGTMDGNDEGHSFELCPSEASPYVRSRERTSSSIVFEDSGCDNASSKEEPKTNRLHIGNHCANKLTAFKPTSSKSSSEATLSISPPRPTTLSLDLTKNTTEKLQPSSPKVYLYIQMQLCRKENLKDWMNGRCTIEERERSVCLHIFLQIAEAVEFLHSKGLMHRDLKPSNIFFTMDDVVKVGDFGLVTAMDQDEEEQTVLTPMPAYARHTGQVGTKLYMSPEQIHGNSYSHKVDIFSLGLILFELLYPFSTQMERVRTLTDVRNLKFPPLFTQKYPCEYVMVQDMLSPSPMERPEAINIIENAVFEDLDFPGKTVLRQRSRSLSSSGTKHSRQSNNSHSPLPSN
# [22] = biological target: Protein kinase C beta type (Homo sapiens, UniProt P05771); test: Inhibition of recombinant PKCbeta (unknown origin)
# SK-OV-3 = test: Antiproliferative activity against human SK-OV-3 cells assessed as inhibition of cell growth incubated for 72 hrs by celltiter-glo assay; format: functional, cell-based; conditions: SK-OV-3, 72 h
# [23] = AUC in Athymic nu-nu mouse at 10 mg/kg, iv measured upto 24 hrs by LC-MS/MS analysis; format: ADME, organism-based; conditions: in vivo
# TF-1 = test: Antiproliferative activity against human TF-1 cells assessed as inhibition of cell growth incubated for 72 hrs by celltiter-glo assay; format: functional, cell-based; conditions: TF-1, 72 h
# UACC-62 = test: Antiproliferative activity against human UACC-62 cells assessed as inhibition of cell growth incubated for 72 hrs by celltiter-glo assay; format: functional, cell-based; conditions: UACC-62, 72 h
compound,measurement,setting,value
CCc1cccc(CC)c1NC(=O)c1nn(C)c2c1CCc1cnc(Nc3ccc(C(=O)NC4CCN(C)CC4)cc3OC(F)(F)F)nc1-2,IC50,[1],2640 nM
same,IC50,A498,1710 nM
same,IC50,SU-DHL-8,829 nM
same,IC50,[2],> 10000 nM
same,IC50,[3],> 10000 nM
same,IC50,MDA-MB-435,1960 nM
same,Activity,HeLa [4],Active
same,Activity,U2OS [5],Active
same,IC50,L-363,1610 nM
same,IC50,[6],< 10000 nM
same,IC50,[7],> 10000 nM
same,IC50,[8],> 10000 nM
same,IC50,COLO 205,592 nM
same,IC50,COLO 320,1280 nM
same,AUC at 24 h,[9],50.7 µM·h
same,IC50,[10],1240 nM
same,IC50,HEL,5490 nM
same,IC50,HOP-92,2180 nM
same,IC50,[11],1320 nM
same,IC50,[12],> 10000 nM
same,IC50,COLO-741,10000 nM
same,IC50,[13],> 10000 nM
same,bioavailability,[14],22.6%
same,IC50,Granta-519,1690 nM
same,IC50,BT-549,1050 nM
same,IC50,NCI-H1770,4420 nM
same,IC50,ACHN,15 nM
same,IC50,[15],> 10000 nM
same,IC50,HOP-62,7770 nM
same,IC50,SN12C,1220 nM
same,IC50,T84,10000 nM
same,Activity,U2OS [16],Active
same,IC50,[17],9400 nM
same,IC50,NCI/ADR-RES,2480 nM
same,Activity,HeLa [18],Active
same,Activity,U2OS [19],inactive
same,Activity,HeLa [20],Active
same,IC50,[21],> 10000 nM
same,IC50,[22],> 10000 nM
same,IC50,SK-OV-3,4260 nM
same,AUC at 24 h,[23],22.4 µM·h
same,IC50,TF-1,6530 nM
same,IC50,UACC-62,4750 nM
